According to patent US9056840B2, “Coelenterazine analogues and coelenteramide analogues” (JNC Corporation, priority 2010, dated 2015):
Entries after “also recorded” stand apart in the source; their conditions may differ.

What was measured:
apoaequorin [1] = molecular target: T1, apoaequorin (Aequorea victoria, UniProt P07164); experiment: Luminescence spectra of semi-synthetic aequorins; assay type: biochemical; settings: semi-synthetic aequorin, calcium added, 22 to 25° C.
T1 construct: purchased Chisso Corporation
T1 sequence (P07164 other isoform, or with tags, fused parts or gaps with the stated changes): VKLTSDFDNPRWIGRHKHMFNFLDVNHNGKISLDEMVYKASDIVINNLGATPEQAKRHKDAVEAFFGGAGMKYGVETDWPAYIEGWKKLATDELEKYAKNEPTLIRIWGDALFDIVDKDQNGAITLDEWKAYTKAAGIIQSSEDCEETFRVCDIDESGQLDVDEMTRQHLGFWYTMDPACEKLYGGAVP
Experimental: In a quartz cell with light path length of 10 mm, 1 ml of 50 mM Tris-HCl (pH 7.6) containing 1 mM EDTA and 100 μl (100 μg protein) of a solution of the regenerated semi-synthetic aequorin were charged. Next, 100 μl of 50 mM Tris-HCl (pH 7.6) containing 0.1 ml of 10 mM calcium chloride solution was added thereto to start the luminescence reaction. The spectra were measured on a spectrofluorimeter (FP-6500, manufactured by Jasco Co., Ltd.) with the excitation light source turned off. The measurement conditions were bandwidth: 20 nm, response: 0.5 second, scan speed: 2000 nm/min and 22 to 25° C. The luminescence spectra measured were corrected.

Gaussia luciferase = experiment: Substrate specificity and luminescence activity of Gaussia luciferase; assay type: biochemical; settings: measured for 10 seconds, coelenterazine = 100
Experimental: Gaussia luciferase was purified by the method described in Japanese Patent Application KOKAI No. 2008-099669 and provided for use. After 1 μl of Gaussia luciferase (0.024 mg/ml) was dissolved in 100 μl of phosphate buffered saline (manufactured by Sigma Inc.) containing 0.01% Tween 20 (manufactured by Sigma Inc.) and 10 mM EDTA, 1 μl of a solution of coelenterazine or its analogue (1 μg/μl) in ethanol was mixed with the solution to start the luminescence reaction. The luminescence activity was measured for 10 seconds on a luminometer luminescencer-PSN AB2200 (manufactured by Atto Co., Ltd.). The luminescence activity was determined by repeating the measurement described above 3 times and expressed in terms of the maximum luminescence intensity (Imax) of luminescence activity.

apoaequorin [2] = molecular target: T1, apoaequorin; experiment: Fluorescence spectra of fluorescent proteins formed from semi-synthetic aequorins by Ca2+; assay type: physicochemical; settings: for Maximum fluorescence wavelength λmax (nm) / Relative fluorescence intensity (rlu): fluorescent protein generated by calcium from semi-synthetic aequorin, excitation 330 nm, 25° C.; for fluorescence spectra of fluorescent proteins versus emission spectra of semi-synthetic aequorins, in words: same coelenterazine analogue
Experimental: The fluorescence spectra of novel fluorescent proteins formed by the Ca^2+-triggerd reaction from semi-synthetic aequorins in EXAMPLE 3 were measured at 25° C. in a quartz cell (10 mm light path length) using a Jasco FP-6500 spectrofluorometer (excitation wavelength: 330 nm, emission/excitation bandwidth: 3 nm; response: 0.5 sec, scan speed, 1000 nm/min). The fluorescence spectra measured were corrected.

[3] = molecular target: T2, 19 kDa protein from Oplophorus luciferase (Oplophorus gracilirostris, UniProt Q9GV45); experiment: Substrate specificity and luminescence activity of the 19 kDa protein from Oplophorus luciferase; assay type: biochemical; settings: measured for 60 seconds, coelenterazine = 100
T2 construct: made in house
T2 sequence (Q9GV45 28-196): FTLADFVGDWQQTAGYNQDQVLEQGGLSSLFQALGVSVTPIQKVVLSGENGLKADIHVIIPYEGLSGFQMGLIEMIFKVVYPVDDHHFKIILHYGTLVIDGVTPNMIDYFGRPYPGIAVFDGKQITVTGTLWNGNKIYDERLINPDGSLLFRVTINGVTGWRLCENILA
Experimental: The 19 kDa protein from Oplophorus luciferase was purified by the method described in Inouye, S. and Sasaki, S., Protein Express. Purif. (2007) 56: 261-268 and provided for use.
(§1) After 1 μl of the 19 kDa protein (2.3 mg/ml) from Oplophorus luciferase containing 1 mM DTT was dissolved in 100 μl of 30 mM Tris-HCl (pH 7.6) containing 10 mM EDTA, 1 μl of a solution of coelenterazine or its analogue (1 μg/μl) in ethanol was added to the solution to start the luminescence reaction, and the luminescence activity was measured for 60 seconds on a luminometer luminescencer-PSN AB2200 (manufactured by Atto Co., Ltd.). The luminescence activity was determined by repeating the measurement described above 3 times and expressed in terms of the maximum luminescence intensity (Imax) of luminescence activity.

apoaequorin [4] = molecular target: T1, apoaequorin; experiment: Luminescence patterns of semi-synthetic aequorins, half decay time; assay type: biochemical; settings: for Half decay time: semi-synthetic aequorin, time in which luminescence becomes half of maximum, patterns measured for 60 seconds
Experimental: A solution of the regenerated semi-synthetic aequorin was diluted to 10-fold with 20 mM Tris-HCl (pH 7.6) containing 0.1% BSA (manufactured by Sigma, Inc.), 0.01 mM EDTA and 150 mM NaCl. The dilution was dispensed into a 96-well microplate (Nunc #236108) at 5 μl/well. The luminescence reaction was triggered by injecting 50 mM Tris-HCl (pH 7.6) containing 50 mM calcium chloride solution at 100 μl/well. The luminescence patterns for 60 seconds were measured to determine half decay time of the luminescence (a time period in which the luminescence becomes half of the maximum luminescence intensity).

apoaequorin [5] = molecular target: T1, apoaequorin; experiment: Calcium standard curve with semi-synthetic aequorins; assay type: biochemical; settings: FIG. 3; Imax versus calcium concentration
Experimental: In 9 ml of 50 mM Tris-HCl (pH 7.6), 1 ml of 1 g/L calcium carbonate standard solution (manufactured by Wako Pure Chemicals) was diluted to prepare 10^−3 M calcium carbonate solution. One milliliter of the resulting 10^−3 M calcium carbonate solution was taken and added to 9 ml of 50 mM Tris-HCl (pH 7.6) to prepare 10^−4 M calcium carbonate solution. Next, 3 ml of the resulting 10^−4 M calcium carbonate solution was taken and added to 6 ml of 50 mM Tris-HCl (pH 7.6) to prepare […] calcium carbonate solution. One milliliter from the 10^−4 M calcium carbonate solution obtained was added to 9 ml of 50 mM Tris-HCl (pH 7.6) to prepare 10^−5 M calcium carbonate solution. Then, 3 ml of the resulting 10^−5 M calcium carbonate solution was taken and added to 6 ml of 50 mM Tris-HCl (pH 7.6) to prepare 3×10^−5 M calcium carbonate solution. A dilution series was prepared by successively repeating the procedures described above to give the 10^−3 M to 10^−8 M calcium standard solutions.
In 5 ml of 50 mM Tris-HCl (pH 7.6) containing 10 mM DTT and 30 mM EDTA, 5 mg of recombinant apoaequorin (manufactured by Chisso Corporation) was dissolved and 100 μg of coelenterazine analogue dissolved in ethanol in an amount of 1.2-fold equivalent was added to the solution. The mixture was allowed to stand at 4° C. overnight to convert into semi-synthetic aequorin. The resulting semi-synthetic aequorin was concentrated using Amicon Ultra-4 (manufactured by Millipore, Inc., molecular weight cut-off: 10,000) to remove an excessive of coelenterazine analogue. The mixture was then washed 3 times with 3 ml of 30 mM Tris-HCl (pH 7.6) containing 0.05 mM EDTA to give the solution of semi-synthetic aequorin containing 0.05 mM EDTA. This semi-synthetic aequorin solution (2.5 mg/ml) was diluted with 20 mM Tris-HCl (pH 7.6) containing 0.1% BSA (manufactured by Sigma), 0.01 mM EDTA and 150 mM NaCl.
The calcium standard solution prepared as above was dispensed into a 96-well microplate (Nunc #236108) at 50 μl/well and 10 μl of the diluted semi-synthetic aequorin solution was injected into 50 μl of various concentration of calcium standard solution. The luminescence intensity was measured for 60 seconds on a luminescence plate reader Centro LB960 (manufactured by Berthold) and expressed in terms of the maximum intensity (Imax) of luminescence. The luminescence intensity was measured on each semi-synthetic aequorin in the same procedures. Semi-synthetic aequorins for practically use were chosen by the maximum intensity (Imax) of luminescence and the calcium standard curve of semi-synthetic aequorin was prepared.

Renilla luciferase = molecular target: T3, Renilla luciferase (Renilla reniformis, UniProt P27652); experiment: Substrate specificity and luminescence activity of Renilla luciferase; assay type: biochemical; settings: measured for 10 seconds, coelenterazine = 100
T3 construct: made in house
T3 sequence (P27652 1-311): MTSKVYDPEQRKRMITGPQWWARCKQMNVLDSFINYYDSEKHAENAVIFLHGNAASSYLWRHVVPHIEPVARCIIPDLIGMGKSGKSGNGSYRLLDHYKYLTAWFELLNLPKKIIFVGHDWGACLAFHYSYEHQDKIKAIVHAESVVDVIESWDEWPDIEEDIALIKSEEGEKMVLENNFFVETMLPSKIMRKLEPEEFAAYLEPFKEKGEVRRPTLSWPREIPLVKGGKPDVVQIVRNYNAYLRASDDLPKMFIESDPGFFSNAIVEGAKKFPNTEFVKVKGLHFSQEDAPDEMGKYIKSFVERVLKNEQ
Experimental: Renilla luciferase was purified by the method described in Inouye, S. & Shimomura, O. Biochem. Biophys. Res. Commun. (1997) 233: 349-353, and used for assay.
as §1, with “Renilla luciferase (0.45” for “the 19 kDa protein (2.3”, “mg/ml)” for “mg/ml) from Oplophorus luciferase containing 1 mM DTT”, “reaction. The” for “reaction, and the”, “10” for “60”, “measurement of luminescence activity” for “measurement”

SMILES	Maximum luminescence wavelength λmax (nm) (apoaequorin [1])	Luminescence activity Imax (%) (Gaussia luciferase)	Maximum fluorescence wavelength λmax (nm) (apoaequorin [2])	Relative fluorescence intensity (rlu) (apoaequorin [2])	Luminescence activity Imax (%) [3] [%]	half decay time of luminescence compared to coelenterazine (native aequorin), in words (apoaequorin [4])	Half decay time (apoaequorin [4]) [s]	calcium standard curve with semi-synthetic aequorin, in words (apoaequorin [5])	Luminescence activity Imax (%) (Renilla luciferase)	fluorescence spectra of fluorescent proteins versus emission spectra of semi-synthetic aequorins, in words (apoaequorin [2])
O=c1c(Cc2ccc(O)cc2)nc2c(-c3cccc4ccccc34)[nH]c(-c3ccc(O)cc3)cn1-2 [Compound 3d, 2-(4-Hydroxybenzyl)-6-(4-hydroxyphenyl)-8-(naphthalen-1-yl)imidazo[1,2-a]pyrazin-3(7H)-one]	480.0	0.00	482.5	61.8	0.3	longer half decay time	1.10	calcium standard curve can be prepared	0.00	–
O=c1c(Cc2ccc(O)cc2)nc2c(-c3cccs3)[nH]c(-c3ccc(O)cc3)cn1-2 [Compound 3f, 2-(4-Hydroxybenzyl)-6-(4-hydroxyphenyl)-8-(thiophen-2-yl)imidazo[1,2-α]pyrazin-3(7H)-one]	515.0	0.00	525.0	38.5	0.1	markedly prolonged; also recorded: longer half decay time	>60	calcium standard curve can be prepared	0.00	different luminescence spectra and fluorescence spectra
O=c1c(Cc2ccc(O)cc2)nc2c(-c3ccccc3)[nH]c(-c3ccc(O)cc3)cn1-2 [Compound 3a, 2-(4-Hydroxybenzyl)-6-(4-hydroxyphenyl)-8-phenylimidazo[1,2-a]pyrazin-3(7H)-one]	494.0	0.00	501.5	118.1	0.4	markedly prolonged; also recorded: longer half decay time	15.7	calcium standard curve can be prepared	0.00	different luminescence spectra and fluorescence spectra
O=c1c(Cc2ccc(O)cc2)nc2c(-c3ccc(O)cc3)[nH]c(-c3ccc(O)cc3)cn1-2 [Compound 3j, 2-(4-Hydroxybenzyl)-6,8-bis(4-hydroxyphenyl)imidazo[1,2-a]pyrazin-3(7H)-one]	457.5	0.01	580.0	13.3	0.2	markedly prolonged; also recorded: longer half decay time	16.8	calcium standard curve can be prepared	0.03	markedly different; also recorded: different luminescence spectra and fluorescence spectra
O=c1c(Cc2ccc(O)cc2)nc2c(-c3ccc4ccccc4c3)[nH]c(-c3ccc(O)cc3)cn1-2 [Compound 3e, 2-(4-Hydroxybenzyl)-6-(4-hydroxyphenyl)-8-(naphthalen-2-yl)imidazo[1,2-a]pyrazin-3(7H)-one]	507.0	0.00	468.5	28.0	0.07	markedly prolonged; also recorded: longer half decay time	3.42	calcium standard curve can be prepared	0.00	markedly different; also recorded: different luminescence spectra and fluorescence spectra
